Patent US20210228653A1, “BACILLUS LICHENIFORMIS STRAIN WITH PROBIOTIC ACTIVITY” (EVONIK DEGUSSA GMBH, priority 2016, published 2021)
Where “and” joins values, the source holds several entries; their conditions need not be identical. Equal values may be shown once.

Parameters: species or system broiler chickens (Vencobb 400)
Conditions: in vivo

**Q.** For “Bacitracin Methylene Disalicyclate [BMD]”, which “FCR (feed conversion ratio, feed to gain)” value is on record?
**A.** The value was 1.42 g/g and 1.74 g/g.

**Q.** And the “FCR compared to the control (in words)” value?
**A.** The value was “reduced”.

**Q.** And the “body weight compared to the control (in words)” value?
**A.** The value was “improved the body weight”.
